In patent publication US11149018B2, “Substituted N-arylethyl-2-aminoquinoline-4-carboxamides and use thereof” (Bayer Aktiengesellschaft, priority 2017, dated 2021):

molecular target: FP receptor (Homo sapiens (Human), UniProt P43088); experiment: In vitro test of inhibition of human FP receptor activity (PGF2α-induced calcium flux in FP-expressing CHEM1 cells); type: cell-based; conditions: PGF2α 2 nM, some mean values of multiple determinations
Procedure: B-1. In Vitro Test of Inhibition of Human FP Receptor Activity
For the characterization of test substances in respect of FP antagonism, PGF2α-induced calcium flux in FP-expressing CHEM1 cells (Millipore, HTS093C) was used.
10 μl of the prediluted substance solution are added to the Fluo-8-laden cells and incubated at 37° C., 5% CO2 for 10 minutes. The FP receptor is activated by adding 40 μl of 2 nM (final concentration) PGF2α in calcium-free Tyrode, 2 mM CaCl2, 0.002% SmartBlock, and the calcium flux is determined by measuring the fluorescence at ex. 470 nm/[…].
Table 1 below lists the IC50 values from this assay for individual working examples of the invention (some as mean values from multiple independent individual determinations): […]

FP receptor, sequence (P43088 whole entry): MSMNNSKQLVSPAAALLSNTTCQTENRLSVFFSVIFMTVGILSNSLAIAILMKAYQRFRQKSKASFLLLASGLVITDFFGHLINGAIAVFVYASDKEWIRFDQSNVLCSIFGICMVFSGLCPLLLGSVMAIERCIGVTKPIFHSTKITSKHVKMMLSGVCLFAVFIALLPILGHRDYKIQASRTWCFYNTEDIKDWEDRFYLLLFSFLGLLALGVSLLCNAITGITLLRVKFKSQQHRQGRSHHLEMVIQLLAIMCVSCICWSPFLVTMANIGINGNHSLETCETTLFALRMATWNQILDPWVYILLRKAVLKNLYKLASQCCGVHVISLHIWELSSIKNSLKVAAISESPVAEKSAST

| Compound | IC50 |
| --- | --- |
| CCC1CCCN(c2nc3ccc(Br)cc3c(C(=O)NCC(CCC(=O)O)c3ccccc3OC(F)(F)F)c2C)C1 (stereo not drawn) [Example 139, 5-[({6-Bromo-2-[3-ethylpiperidin-1-yl]-3-methylquinolin-4-yl}carbonyl)amino]-4-[2-(trifluoromethoxy)phenyl]pentanoic acid] | 1.5 nM |
| Cc1c(N2CC=CCC2)nc2ccc(Br)cc2c1C(=O)NCC(CCC(=O)O)c1ccccc1Cl (racemic) [Example 29, (+/−)-5-({[6-Bromo-2-(3,6-dihydropyridin-1(2H)-yl)-3-methylquinolin-4-yl]carbonyl}amino)-4-(2-chlorophenyl)pentanoic acid] | 22 nM |
| [2H]C1([2H])N(c2nc3ccc(Br)cc3c(C(=O)NCC(CCC(=O)O)c3c(F)ccc(F)c3Cl)c2C)C([2H])([2H])C([2H])([2H])C1([2H])[2H] (single isomer, unassigned; (+)) [Example 281, (+)-5-[({6-Bromo-3-methyl-2-[(^2H8)pyrrolidin-1-yl]quinolin-4-yl}carbonyl)amino]-4-(2-chloro-3,6-difluorophenyl)pentanoic acid] | 80 nM |
| Cc1c(N2CCCCCC2)nc2ccc(Br)cc2c1C(=O)NCC(CCC(=O)O)c1ccccc1C(F)(F)F (single isomer, unassigned; (-)) [Example 121, (−)-5-({[2-(Azepan-1-yl)-6-bromo-3-methylquinolin-4-yl]carbonyl}amino)-4-[2-(trifluoromethyl)phenyl]pentanoic acid] | 4.1 nM |
| Cc1c(N2CCCCC2)nc2ccc(Br)cc2c1C(=O)NCC(CCC(=O)O)c1ccccc1C(F)(F)F (racemic) [Example 111, (+/−)-5-({[6-Bromo-3-methyl-2-(piperidin-1-yl)quinolin-4-yl]carbonyl}amino)-4-[2-(trifluoromethyl)phenyl]pentanoic acid] | 6.4 nM |
| Cc1c(N2CCCO2)nc2ccc(Br)cc2c1C(=O)NCC(CCC(=O)O)c1ccccc1Cl (single isomer, unassigned; (+)) [Example 40, (+)-5-({[6-Bromo-3-methyl-2-(1,2-oxazolidin-2-yl)quinolin-4-yl]carbonyl}amino)-4-(2-chlorophenyl)pentanoic acid] | 62 nM |
| Cc1c(N2CCCC(C)C2)nc2ccc(Br)cc2c1C(=O)NCC(CCC(=O)O)c1ccccc1C(F)(F)F (single isomer, unassigned; (-)) [Example 199, (−)-5-[({6-Bromo-3-methyl-2-[3-methylpiperidin-1-yl]quinolin-4-yl}carbonyl)amino]-4-[2-(trifluoromethyl)phenyl]pentanoic acid] | 1.6 nM |
| Cc1c(N2CCCO2)nc2ccc(Br)cc2c1C(=O)NCC(CCC(=O)O)c1ccccc1Cl (single isomer, unassigned; (-)) [Example 39, (−)-5-({[6-Bromo-3-methyl-2-(1,2-oxazolidin-2-yl)quinolin-4-yl]carbonyl}amino)-4-(2-chlorophenyl)pentanoic acid] | 24 nM |
| Cc1c(N2CCCC(C)C2)nc2ccc(Br)cc2c1C(=O)NCC(CCC(=O)O)c1ccccc1C(F)(F)F (single isomer, unassigned; (+)) [Example 198, (+)-5-[({6-Bromo-3-methyl-2-[3-methylpiperidin-1-yl]quinolin-4-yl}carbonyl)amino]-4-[2-(trifluoromethyl)phenyl]pentanoic acid] | 3.7 nM |
| Cc1c(N2CCCCC2)nc2ccc(Br)cc2c1C(=O)NCC(CCC(=O)O)c1cc(F)ccc1F (single isomer, unassigned; (+)) [Example 257, (+)-5-({[6-Bromo-3-methyl-2-(piperidin-1-yl)quinolin-4-yl]carbonyl}amino)-4-(2,5-difluorophenyl)pentanoic acid] | 15 nM |
| Cc1c(N2CCCC(C)C2)nc2ccc(Br)cc2c1C(=O)NCC(CCC(=O)O)c1ccccc1Cl (single isomer, unassigned; (+)) [Example 47, (+)-5-[({6-Bromo-3-methyl-2-[3-methylpiperidin-1-yl]quinolin-4-yl}carbonyl)amino]-4-(2-chlorophenyl)pentanoic acid] | 14 nM |
| Cc1c(N2CC3CCC(C3)C2)nc2ccc(Br)cc2c1C(=O)NCC(CCC(=O)O)c1ccccc1Cl (racemic) [Example 74, (+/−)-5-[({2-[3-Azabicyclo[3.2.1]oct-3-yl]-6-bromo-3-methylquinolin-4-yl}carbonyl)amino]-4-(2-chlorophenyl)pentanoic acid] | 170 nM |
| Cc1c(N2CCSCC2)nc2ccc(Br)cc2c1C(=O)NCC(CCC(=O)O)c1ccccc1Cl (single isomer, unassigned; (+)) [Example 26, (+)-5-({[6-Bromo-3-methyl-2-(thiomorpholin-4-yl)quinolin-4-yl]carbonyl}amino)-4-(2-chlorophenyl)pentanoic acid] | 21 nM |
| CCC1CCCN(c2nc3ccc(Br)cc3c(C(=O)NCC(CCC(=O)O)c3cc(F)ccc3F)c2C)C1 (single isomer, unassigned; (+)) [Example 228, (+)-5-[({6-Bromo-2-[3-ethylpiperidin-1-yl]-3-methylquinolin-4-yl}carbonyl)amino]-4-(2,5-difluorophenyl)pentanoic acid] | 1.1 nM |
| (+)-5-[({6-Bromo-3-methyl-2-[(^2H8)pyrrolidin-1-yl]quinolin-4-yl}carbonyl)amino]-4-[2-(trifluoromethyl)phenyl]pentanoic acid [Example 278] | 34 nM |
| Cc1c(N2CC(C)CC(C)C2)nc2ccc(Br)cc2c1C(=O)NCC(CCC(=O)O)c1ccccc1Cl (stereo not drawn) [Example 63, 5-[({6-Bromo-2-[3,5-dimethylpiperidin-1-yl]-3-methylquinolin-4-yl}carbonyl)amino]-4-(2-chlorophenyl)pentanoic acid] | 7.3 nM |
| Cc1c(N2CCCCC2)nc2ccc(Br)cc2c1C(=O)NCC(CC(=O)O)c1c(F)cccc1Cl (racemic) [Example 1, (+/−)-4-({[6-Bromo-3-methyl-2-(piperidin-1-yl)quinolin-4-yl]carbonyl}amino)-3-(2-chloro-6-fluorophenyl)butanoic acid] | 26 nM |
| Cc1c(N2CCCC(C)C2)nc2ccc(Br)cc2c1C(=O)NCC(CCC(=O)O)c1ccccc1OC(F)(F)F (single isomer, unassigned; (-)) [Example 210, (−)-5-[({6-Bromo-3-methyl-2-[3-methylpiperidin-1-yl]quinolin-4-yl}carbonyl)amino]-4-[2-(trifluoromethoxy)phenyl]pentanoic acid] | 0.68 nM |
| Cc1c(N2CCCCC2)nc2ccc(Br)cc2c1C(=O)NCC(CC(=O)O)c1c(F)cccc1Cl (single isomer, unassigned; (-)) [Example 2, (−)-4-({[6-Bromo-3-methyl-2-(piperidin-1-yl)quinolin-4-yl]carbonyl}amino)-3-(2-chloro-6-fluorophenyl)butanoic acid] | 23 nM |
| Cc1c(N2CCCCC2)nc2ccc(Br)cc2c1C(=O)NCC(CCC(=O)O)c1c(Cl)ccc(Cl)c1Cl (single isomer, unassigned; (-)) [Example 173, (−)-5-({[6-Bromo-3-methyl-2-(piperidin-1-yl)quinolin-4-yl]carbonyl}amino)-4-(2,3,6-trichlorophenyl)pentanoic acid] | 2.2 nM |
| Cc1c(NCC2CCCCC2)nc2ccc(Br)cc2c1C(=O)NCC(CCC(=O)O)c1ccccc1Cl (racemic) [Example 99, (+/−)-5-[({6-Bromo-2-[(cyclohexylmethyl)amino]-3-methylquinolin-4-yl}carbonyl)amino]-4-(2-chlorophenyl)pentanoic acid] | 500 nM |
| Cc1c(N2CCCC(C)C2)nc2ccc(Br)cc2c1C(=O)NCC(CCC(=O)O)c1ccccc1OC(F)(F)F (single isomer, unassigned; (-)) [Example 209, (−)-5-[({6-Bromo-3-methyl-2-[3-methylpiperidin-1-yl]quinolin-4-yl}carbonyl)amino]-4-[2-(trifluoromethoxy)phenyl]pentanoic acid] | 7 nM |
| CCC1CCCN(c2nc3ccc(Br)cc3c(C(=O)NCC(CCC(=O)O)c3cc(F)ccc3F)c2C)C1 (racemic) [Example 225, 5-[({6-Bromo-2-[3-ethylpiperidin-1-yl]-3-methylquinolin-4-yl}carbonyl)amino]-4-(2,5-difluorophenyl)pentanoic acid] | 3.2 nM |
| Cc1c(N2CCCO2)nc2ccc(Br)cc2c1C(=O)NCC(CCC(=O)O)c1ccccc1Cl (racemic) [Example 38, (+/−)-5-({[6-Bromo-3-methyl-2-(1,2-oxazolidin-2-yl)quinolin-4-yl]carbonyl}amino)-4-(2-chlorophenyl)pentanoic acid] | 110 nM |
| Cc1c(N2CCCC(C)C2)nc2ccc(Br)cc2c1C(=O)NCC(CCC(=O)O)c1ccccc1C(F)(F)F (single isomer, unassigned; (+)) [Example 197, (+)-5-[({6-Bromo-3-methyl-2-[3-methylpiperidin-1-yl]quinolin-4-yl}carbonyl)amino]-4-[2-(trifluoromethyl)phenyl]pentanoic acid] | 21 nM |
| Cc1c(N2CCCCC2)nc2ccc(Br)cc2c1C(=O)NCC(CCC(=O)O)c1ccccc1OC(F)(F)F (single isomer, unassigned; (+)) [Example 128, (+)-5-({[6-Bromo-3-methyl-2-(piperidin-1-yl)quinolin-4-yl]carbonyl}amino)-4-[2-(trifluoromethoxy)phenyl]pentanoic acid] | 3.8 nM |
| Cc1c(NCCC(F)(F)F)nc2ccc(Br)cc2c1C(=O)NCC(CCC(=O)O)c1ccccc1Cl (racemic) [Example 98, (+/−)-5-[({6-Bromo-3-methyl-2-[(3,3,3-trifluoropropyl)amino]quinolin-4-yl}carbonyl)amino]-4-(2-chlorophenyl)pentanoic acid] | 530 nM |
